This note sets out measurements from US8871756B2 (Hoffmann-La Roche Inc., priority 2011, dated 2014).

The test system of the assay is RSV Long strain. The assay is described as follows: Viral cytopathic effect (CPE) assay, anti-RSV activity. It counts as cell-based, Respiratory Syncytial Virus. The settings on record: human respiratory syncytial virus, 144 h, RSV Long strain (ATCC); cell viability after 6 days, Cell Counting kit-8. The procedure, abridged: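 EC50 was derived from CCK-8 viability at 450/630 nm measured 6 days post-infection. Infection used enough RSV Long strain for approximately 80–90% cytopathic effect, in the presence of half-log serially diluted compound. Cells were plated the day before at 6×10^3 per well in DMEM/10% FBS.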
In general terms: Cytopathic effects are the visible damage that an infection or toxin causes in cultured cells.

For orientation: EC50 means the concentration needed to bring the measured effect to its halfway point. The low end stands for higher potency in that assay, the high end for lower potency in that assay.

As for `NC1(CNc2cc(N3CCS(=O)(=O)c4ccc(F)cc4C3)nc3ccc(Cl)cc23)COC1` [Example 3-3, N-[(3-Aminooxetan-3-yl)methyl]-6-chloro-2-(7-fluoro-1,1-dioxido-2,3-dihydro-1,4-benzothiazepin-4(5H)-yl)quinolin-4-amine], the concentration giving a half-maximal response (EC50) was found to be 3.55 µM. For `COCCOc1ccc2nc(N3CCS(=O)(=O)c4ccccc4C3)cc(NCCCN)c2c1` [Example 30-2, N-[2-(1,1-Dioxido-2,3-dihydro-1,4-benzothiazepin-4(5H)-yl)-6-(2-methoxyethoxy)quinolin-4-yl]propane-1,3-diamine] the value was 0.218 µM; for `Cc1ccc2nc(N3CCS(=O)(=O)c4ccccc4C3)cc(NCC(C)(O)CO)c2c1` (centres unmarked) [Example 67, 3-{[2-(1,1-Dioxido-2,3-dihydro-1,4-benzothiazepin-4(5H)-yl)-6-methylquinolin-4-yl]amino}-2-methylpropane-1,2-diol], 0.585 µM; for `Cc1ccc2nc(N3CCS(=O)(=O)c4ccccc4C3)cc(N3C[C@H](O)[C@@H](O)C3)c2c1` [Example 3-34, (3S,4S)-1-[2-(1,1-Dioxido-2,3-dihydro-1,4-benzothiazepin-4(5H)-yl)-6-methylquinolin-4-yl]pyrrolidine-3,4-diol], 0.085 µM. In turn, `Cc1ccc2nc(N3CCS(=O)(=O)c4ccccc4C3)nc(NCC(C)(C)N)c2c1` [Example 60, N^˜1^˜-[2-(1,1-Dioxido-2,3-dihydro-1,4-benzothiazepin-4(5H)-yl)-6-methylquinazolin-4-yl]-2-methylpropane-1,2-diamine] displayed an EC50 of 0.018 µM. As for `NCCNc1cc(N2CCCc3ccccc3C2)nc2ccc(C(F)(F)F)cc12` [Example 118-19, N-[2-(1,3,4,5-Tetrahydro-2H-2-benzazepin-2-yl)-6-(trifluoromethyl)quinolin-4-yl]ethane-1,2-diamine], the figure is 1.24 µM; as for `Cc1ccc2nc(N3CCS(=O)(=O)c4ccccc4C3)cc(N)c2c1` [Example 39, 2-(1,1-Dioxido-2,3-dihydro-1,4-benzothiazepin-4(5H)-yl)-6-methylquinolin-4-amine], 0.092 µM. As for `Cc1ccc2nc(N3CCS(=O)(=O)c4ccccc4C3)cc(NCC3(CO)COC3)c2c1` [Example 3-9, [3-({[2-(1,1-Dioxido-2,3-dihydro-1,4-benzothiazepin-4(5H)-yl)-6-methylquinolin-4-yl]amino}methyl)oxetan-3-yl]methanol], the figure is 0.248 µM; as for `Cc1ccc2nc(N3CCS(=O)(=O)c4ccccc4C3)cc(NCCS(C)(=N)=O)c2c1` (centres unmarked) [Example 77, 2-(1,1-Dioxido-2,3-dihydro-1,4-benzothiazepin-4(5H)-yl)-6-methyl-N-[2-(S-methylsulfonimidoyl)ethyl]quinolin-4-amine], 8.78 µM; as for `Cc1cc2c(NCCN)cc(N3CCS(=O)(=O)c4ccccc4C3)nc2cc1F` [Example 9-24, N-[2-(1,1-Dioxido-2,3-dihydro-1,4-benzothiazepin-4(5H)-yl)-7-fluoro-6-methylquinolin-4-yl]ethane-1,2-diamine], 0.024 µM. As for `Cc1ccc2nc(N3CCS(=O)(=O)c4ccccc4C3)cc(NC3CNCC34COC4)c2c1` (centres unmarked) [Example 2-6, 2-(1,1-Dioxido-2,3-dihydro-1,4-benzothiazepin-4(5H)-yl)-6-methyl-N-(2-oxa-6-azaspiro[3.4]oct-8-yl)quinolin-4-amine], the EC50 amounted to 0.021 µM. In the case of `Cc1ccc2nc(N3CCS(=O)(=O)c4ccccc4C3)cc(N3C[C@@H](N)[C@H](F)C3)c2c1` (relative stereo) [Example 78-2, trans-1-[2-(1,1-Dioxido-2,3-dihydro-1,4-benzothiazepin-4(5H)-yl)-6-methylquinolin-4-yl]-4-fluoropyrrolidin-3-amine], the EC50 was 0.25 µM.

With `Cc1ccc2nc(N3CCS(=O)(=O)c4ccccc4C3)cc(NC(=O)N(C)C)c2c1` [Example 3-63, 3-[2-(1,1-Dioxido-2,3-dihydro-1,4-benzothiazepin-4(5H)-yl)-6-methylquinolin-4-yl]-1,1-dimethylurea], the response was half-maximal at 9.9 µM (EC50).

With `Cc1ccc2nc(N3CCS(=O)(=O)c4ccccc4C3)cc(NC3(CCO)COC3)c2c1` [Example 5-12, 3-{[2-(1,1-Dioxido-2,3-dihydro-1,4-benzothiazepin-4(5H)-yl)-6-methylquinolin-4-yl]amino}oxetan-3-ethanol], the 50% effective concentration (EC50) was 6.25 µM. As for `Cc1ccc2nc(N3CCC(F)(F)c4ccccc4C3)nc(NCC3(N)CS(=O)(=O)C3)c2c1` [Example 116-2, N-[(3-Amino-1,1-dioxidothietan-3-yl)methyl]-2-(5,5-difluoro-1,3,4,5-tetrahydro-2H-2-benzazepin-2-yl)-6-methylquinazolin-4-amine], the figure is 0.309 µM; as for `Cc1ccc2nc(N3CCSc4ccccc4C3)cc(NCC3(N)COC3)c2c1` [Example 4-3, N-[(3-Aminooxetan-3-yl)methyl]-2-(2,3-dihydro-1,4-benzothiazepin-4(5 H)-yl)-6-methylquinolin-4-amine], 0.026 µM; as for `Cc1ccc2nc(N3CCNc4ccccc4C3)cc(NCCN)c2c1` [Example 133-2, N-[6-Methyl-2-(1,2,3,5-tetrahydro-4H-1,4-benzodiazepin-4-yl)quinolin-4-yl]ethane-1,2-diamine], 0.186 µM. With `NCCNc1cc(N2CCS(=O)(=O)c3ccccc3C2)nc2ccc(CO)cc12` [Example 10, {4-[(2-Aminoethyl)amino]-2-(1,1-dioxido-2,3-dihydro-1,4-benzothiazepin-4(5H)-yl)quinolin-6-yl}methanol], the concentration giving a half-maximal response (EC50) was determined as 0.003 µM. For `Cc1ccc2nc(N3CCS(=O)(=O)c4ccccc4C3)nc(NCC3(N)COC3)c2c1` [Example 61-1, N-[(3-Aminooxetan-3-yl)methyl]-2-(1,1-dioxido-2,3-dihydro-1,4-benzothiazepin-4(5H)-yl)-6-methylquinazolin-4-amine] the value was 0.005 µM; for `Cc1ccc2nc(N3CCS(=O)(=O)c4ccccc4C3)cc(N3C[C@@H]4OC(N)=N[C@@H]4C3)c2c1` (relative stereo) [Example 38-5, cis-5-[2-(1,1-Dioxido-2,3-dihydro-1,4-benzothiazepin-4(5H)-yl)-6-methylquinolin-4-yl]-4,5,6,6a-tetrahydro-3aH-pyrrolo[3,4-d][1,3]oxazol-2-amine], 6.65 µM.

For the compound `NC1(CNc2nc(N3CCSc4ccccc4C3)nc3ccccc23)COC1` [Example 57-1, N-[(3-Aminooxetan-3-yl)methyl]-2-(2,3-dihydro-1,4-benzothiazepin-4(5H)-yl)quinazolin-4-amine], the half-maximal effective concentration (EC50) was 0.067 µM. As for `Cc1ccc2nc(N3CCS(=O)(=O)c4ccccc4C3)cc(NC(=O)C3CCCNC3)c2c1` (centres unmarked) [Example 3-61, N-[2-(1,1-Dioxido-2,3-dihydro-1,4-benzothiazepin-4(5H)-yl)-6-methylquinolin-4-yl]piperidine-3-carboxamide], the figure is 0.118 µM; as for `Cc1ccc2nc(N3Cc4ccccc4S(=O)(=O)C(C)C3)cc(NCC3(N)COC3)c2c1` (centres unmarked) [Example 69-2, N-[(3-Aminooxetan-3-yl)methyl]-6-methyl-2-(2-methyl-1,1-dioxido-2,3-dihydro-1,4-benzothiazepin-4(5H)-yl)quinolin-4-amine], 0.007 µM.

Compound `CO[C@@H]1CN(c2cc(N3CCS(=O)(=O)c4ccccc4C3)nc3ccc(C)cc23)C[C@H]1N` (relative stereo) [Example 8-3, trans-1-[2-(1,1-Dioxido-2,3-dihydro-1,4-benzothiazepin-4(5H)-yl)-6-methylquinolin-4-yl]-4-methoxypyrrolidin-3-amine] displayed an EC50 of 0.9 µM. For `Cc1ccc2nc(N3CCS(=O)(=O)c4ccccc4C3)cc(N[C@@H]3CNC[C@H]3O)c2c1` (relative stereo) [Example 28-3, trans-4-{[2-(1,1-Dioxido-2,3-dihydro-1,4-benzothiazepin-4(5H)-yl)-6-methylquinolin-4-yl]amino}pyrrolidin-3-ol] the value was 0.001 µM; for `Cc1ccc2nc(N3CCS(=O)(=O)c4ccccc4C3)cc(NC3(CNC(=O)C(F)(F)F)COC3)c2c1` [Example 70, N-[(3-{[2-(1,1-Dioxido-2,3-dihydro-1,4-benzothiazepin-4(5H)-yl)-6-methylquinolin-4-yl]amino}oxetan-3-yl)methyl]-2,2,2-trifluoroacetamide], 0.071 µM. As for `NCCNc1cc(N2CCCc3cc(Br)ccc3C2)nc2ccc(Cl)cc12` [Example 118-1, N-[2-(7-Bromo-1,3,4,5-tetrahydro-2H-2-benzazepin-2-yl)-6-chloroquinolin-4-yl]ethane-1,2-diamine], the figure is 1.98 µM; as for `Cc1ccc2nc(N3CCC(F)(F)c4ccccc4C3)cc(NCC(O)CN)c2c1` (centres unmarked) [Example 110-4, 1-Amino-3-{[2-(5,5-difluoro-1,3,4,5-tetrahydro-2H-2-benzazepin-2-yl)-6-methylquinolin-4-yl]amino}propan-2-ol], 0.06 µM; as for `COc1ccc2c(c1)CCCN(c1cc(NCCN)c3ccccc3n1)C2` [Example 118-15, N-[2-(7-Methoxy-1,3,4,5-tetrahydro-2H-2-benzazepin-2-yl)quinolin-4-yl]ethane-1,2-diamine], 0.626 µM.

`O=S1(=O)CCN(c2cc(NCC(O)CO)c3cc(Cl)ccc3n2)Cc2ccccc21` (centres unmarked) [Example 32-2, 3-{[6-Chloro-2-(1,1-dioxido-2,3-dihydro-1,4-benzothiazepin-4(5H)-yl)quinolin-4-yl]amino}propane-1,2-diol] came in with an EC50 of 2.45 µM. Consider `COc1ccc2c(c1)CN(c1cc(N)c3cc(C)ccc3n1)CCS2(=O)=O` [Example 20-2, 2-(7-Methoxy-1,1-dioxido-2,3-dihydro-1,4-benzothiazepin-4(5H)-yl)-6-methylquinolin-4-amine], for which the EC50 came out at 0.31 µM. As for `Cc1cccc2c(NCCCCCCCCCCN)cc(N3CCS(=O)(=O)c4ccccc4C3)nc12` [Example 12-4, N-[2-(1,1-Dioxido-2,3-dihydro-1,4-benzothiazepin-4(5H)-yl)-8-methylquinolin-4-yl]decane-1,10-diamine], the figure is 0.764 µM.
